Assay results reported in patent US12661355B2, “Compounds and methods for inducing UCP1 expression” (The Regents of the University of California, priority 2020, dated 2026).
Entries after “also recorded” stand apart in the source; their conditions may differ.

What was measured:
[1] = test system: phospho-(Ser/Thr) PKA substrate; test: Phosphorylation of PKA substrates by Western blot in brown adipocytes; type: cell-based, mouse; settings: overnight, 10 μM
Experimental: Cells and tissues were lysed in 10 mM Tris pH 7.5, 10 mM NaCl, 1 mM EDTA and 0.5% Triton X-100, supplemented with complete mini EDTA-free protease (Roche Diagnostics) and phosphatase (Cocktail 2 and 3, Sigma) inhibitors, followed by 10 second sonication. For analysis of mitochondrial proteins, mitochondria were isolated from cells by dual centrifugation, as described. Protein lysates were separated by SDS-PAGE and transferred to a nitrocellulose membrane. Transfer was confirmed by Ponceau staining (P7170, Sigma). After blocking in 5% milk, 0.1% Tween-20 in Tris-buffered saline (TBS), primary antibody was incubated overnight at 4° C. in 5% bovine serum albumin and 0.1% Tween-20 in TBS. Primary antibodies against ACTB (GTX109639, GeneTex), AKAP1 (5203, Cell Signaling), AKAP6 (07-087, Millipore), Cytochrome c (136F3, Cell Signaling), electron transport chain protein complexes (Total OXPHOS rodent WB antibody cocktail ab110413, Abcam), GAPDH (GTX100118, Genetex), active p38 MAPK (V1211, Promega), total p38 MAPK (8690, Cell Signaling), PGC1α (AB3242, Millipore), phospho-(Ser/Thr) PKA substrate (9621, Cell Signaling), PKA C-α (4782, Cell Signaling), PKA RII-β (ab75993, Abcam), and UCP1 (662045, Calbiochem) were used at 1:2000. […] Quantification using representative bands from the Ponceau staining was performed with ImageJ.

AKAP13 = target: T1, AKAP13 (Rattus norvegicus, UniProt F1M3G7); test: DARTS in H9c2 cell extracts, AKAP13; type: binding; settings: 20 μM, 1 h
T1 construct: DARTS assay in H9c2 cell extracts treated with vehicle or 20 μM Z160 for 1 h; endogenous in cells; host or cells: rat H9c2 cells
Experimental: (§1) Rat H9c2 cells were grown in DMEM supplemented with 10% FBS, 25 mM glucose, 1 mM pyruvate, and 2 mM glutamine Neonatal rat ventricular myocytes (NRVM) were isolated and cultured as previously described. Briefly, 2-4 day old rats were sacrificed and myocytes and fibroblasts were isolated and separated using a Percoll density gradient. Following isolation, NRVMs were plated on gelatin-coated plates in DMEM containing 10% FBS, 25 mM glucose, 1 mM pyruvate, and 2 mM glutamine The next day, FBS was replaced by 1× insulin-transferrin-selenium supplement and the cells were treated with vehicle or 10 μM Z160 for 2 days, with or without 60 μM isoproterenol or 50 μM phenylephrine.
[…] assays were performed according to known methods. Briefly, BAT or cells within a 10 cm dish were lysed with 600 μl M-PER buffer containing protease and phosphatase inhibitors. Debris was pelleted by centrifugation at 18,000 g for 10 min at 4° C., and the lysates were harvested and supplemented with TNC buffer (50 mM Tris-HCl, 50 mM NaCl, 10 mM CaCl2). The lysates were split into two tubes and treated with either vehicle or 20 μM Z160 for 1 h at room temperature. For experiment with BAT, 100 μg of lysate was incubated with different Z160 concentrations. […]

NRVM = test: Respirometry (reserve capacity) in neonatal rat ventricular myocytes; type: cell-based; settings: 10 μM Z160 for 24 h following 48 h 100 μM isoproterenol
Experimental: as §1
NRVM were seeded in a Seahorse Bioscience XF96 plate and cultured for 48 h in 10% FBS. Next, cells were treated with 100 μM ISO for 48 h, followed by 24 h of 10 μM Z160. Oxygen consumption rate (OCR) was recorded in a Seahorse Bioscience XF96 analyzer before and after the sequential injection of 0.75 μM oligomycin, 0.75 μm FCCP and 0.75 μM rotenone/myxothiazol. Reserve capacity was calculated as the difference between basal respiration and FCCP response.

p38 MAPK = test: CETSA in brown adipocytes, p38 MAPK; type: binding, mouse; settings: 10 μM for 8 h
Experimental: CETSA assays were performed according to known methods. Briefly, differentiated brown adipocytes (one 10 cm dish per treatment) were treated with vehicle or compounds, trypsinized, counted, and re-suspended in approximately 450 μl PBS containing protease inhibitors (volumes were adjusted to have the same number of cells in each treatment). For each sample, 18 μl was distributed into each of 7 PCR tubes. Samples were heated using a thermocycler with a temperature gradient (iCycler, Biorad) for 3 min, followed by 3 min at room temperature, and then snap-frozen in liquid N2. After two freeze-thaw cycles, samples were centrifuged at 20,000 g for 15 min at 4° C., and the supernatants were transferred to another set of tubes. Proteins were analyzed by immunoblotting.
The potential interaction of Z160 with PKA subunits and AKAPs was assessed first by identifying which PKA subunits and AKAP isoforms are normally present in BAT. […] To perform the CETSA assays, cultured brown adipocytes were incubated with 10 μM Z160 for 8 h, after which the thermal shift was analyzed by Western blot.

T1 sequence (F1M3G7 whole entry): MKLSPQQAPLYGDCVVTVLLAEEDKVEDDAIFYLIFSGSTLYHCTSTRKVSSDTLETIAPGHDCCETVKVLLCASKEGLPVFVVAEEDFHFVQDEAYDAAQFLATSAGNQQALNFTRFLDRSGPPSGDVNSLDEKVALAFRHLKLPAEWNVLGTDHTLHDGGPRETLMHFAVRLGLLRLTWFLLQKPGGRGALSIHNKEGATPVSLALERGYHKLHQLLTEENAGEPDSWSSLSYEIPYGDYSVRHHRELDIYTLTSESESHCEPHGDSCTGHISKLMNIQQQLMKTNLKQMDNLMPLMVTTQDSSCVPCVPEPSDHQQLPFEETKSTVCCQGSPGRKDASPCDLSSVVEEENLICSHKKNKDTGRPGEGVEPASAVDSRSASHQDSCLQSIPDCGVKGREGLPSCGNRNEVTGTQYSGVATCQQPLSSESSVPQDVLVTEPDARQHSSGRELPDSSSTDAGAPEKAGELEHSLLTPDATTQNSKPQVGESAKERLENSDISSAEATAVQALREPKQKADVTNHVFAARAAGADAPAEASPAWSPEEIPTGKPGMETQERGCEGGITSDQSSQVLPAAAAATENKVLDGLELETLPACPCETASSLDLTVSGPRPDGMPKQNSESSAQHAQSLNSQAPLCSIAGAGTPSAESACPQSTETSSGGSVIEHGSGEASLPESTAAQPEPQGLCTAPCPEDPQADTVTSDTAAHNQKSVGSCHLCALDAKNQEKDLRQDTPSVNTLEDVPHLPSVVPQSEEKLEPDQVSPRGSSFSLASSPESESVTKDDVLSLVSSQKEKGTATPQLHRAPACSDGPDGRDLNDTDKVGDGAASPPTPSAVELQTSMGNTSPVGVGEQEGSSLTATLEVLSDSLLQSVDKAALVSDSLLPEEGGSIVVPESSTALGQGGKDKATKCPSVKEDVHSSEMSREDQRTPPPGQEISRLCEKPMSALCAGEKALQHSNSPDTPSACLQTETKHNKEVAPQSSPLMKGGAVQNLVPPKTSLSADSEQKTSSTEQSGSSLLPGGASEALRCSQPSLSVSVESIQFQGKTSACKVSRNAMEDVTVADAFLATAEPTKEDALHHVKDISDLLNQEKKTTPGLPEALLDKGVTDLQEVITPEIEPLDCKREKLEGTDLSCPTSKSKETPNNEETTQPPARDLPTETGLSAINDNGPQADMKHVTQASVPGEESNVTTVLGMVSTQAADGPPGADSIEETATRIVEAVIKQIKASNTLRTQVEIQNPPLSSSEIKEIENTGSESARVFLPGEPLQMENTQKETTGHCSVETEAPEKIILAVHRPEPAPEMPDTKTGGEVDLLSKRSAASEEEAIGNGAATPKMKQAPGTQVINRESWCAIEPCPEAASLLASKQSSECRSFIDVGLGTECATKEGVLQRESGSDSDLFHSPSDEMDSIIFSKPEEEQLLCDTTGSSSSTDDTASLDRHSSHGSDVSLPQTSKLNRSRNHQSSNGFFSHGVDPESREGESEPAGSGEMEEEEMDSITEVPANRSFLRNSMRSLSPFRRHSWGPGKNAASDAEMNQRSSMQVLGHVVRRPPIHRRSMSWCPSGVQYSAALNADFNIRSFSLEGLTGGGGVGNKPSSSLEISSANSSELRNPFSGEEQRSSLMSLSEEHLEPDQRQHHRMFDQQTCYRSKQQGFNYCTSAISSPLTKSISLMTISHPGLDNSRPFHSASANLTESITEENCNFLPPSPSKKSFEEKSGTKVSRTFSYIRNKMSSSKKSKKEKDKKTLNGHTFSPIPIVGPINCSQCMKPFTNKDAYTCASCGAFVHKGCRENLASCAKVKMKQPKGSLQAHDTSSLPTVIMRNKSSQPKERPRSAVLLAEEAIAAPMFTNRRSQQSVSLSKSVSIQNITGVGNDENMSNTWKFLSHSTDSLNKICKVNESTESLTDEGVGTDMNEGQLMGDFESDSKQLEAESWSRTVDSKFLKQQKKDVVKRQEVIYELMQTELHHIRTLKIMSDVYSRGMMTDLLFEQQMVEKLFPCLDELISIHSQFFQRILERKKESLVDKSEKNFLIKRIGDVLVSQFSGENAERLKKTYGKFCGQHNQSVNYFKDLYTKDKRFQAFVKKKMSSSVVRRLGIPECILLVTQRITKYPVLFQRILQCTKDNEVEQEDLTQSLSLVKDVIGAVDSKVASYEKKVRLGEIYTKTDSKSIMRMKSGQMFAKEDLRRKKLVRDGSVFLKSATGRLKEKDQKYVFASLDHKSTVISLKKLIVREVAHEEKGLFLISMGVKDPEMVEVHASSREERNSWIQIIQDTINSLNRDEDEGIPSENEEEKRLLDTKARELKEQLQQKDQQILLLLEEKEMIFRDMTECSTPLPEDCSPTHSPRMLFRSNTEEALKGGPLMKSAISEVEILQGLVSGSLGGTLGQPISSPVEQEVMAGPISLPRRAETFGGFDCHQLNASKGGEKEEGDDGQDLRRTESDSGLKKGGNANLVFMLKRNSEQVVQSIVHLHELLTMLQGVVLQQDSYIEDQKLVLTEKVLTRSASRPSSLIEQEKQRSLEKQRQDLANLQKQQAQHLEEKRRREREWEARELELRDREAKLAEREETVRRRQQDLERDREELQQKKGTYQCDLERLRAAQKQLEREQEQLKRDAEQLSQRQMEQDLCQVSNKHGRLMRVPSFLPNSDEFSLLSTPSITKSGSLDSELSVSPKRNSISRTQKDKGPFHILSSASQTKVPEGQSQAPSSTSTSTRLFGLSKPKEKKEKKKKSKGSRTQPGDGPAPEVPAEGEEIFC

O=C(CSc1nc2ccccc2c(=O)[nH]1)Nc1ccc2c(c1)OCCO2 [AST070, N-(2,3-dihydro-1,4-benzodioxin-6-yl)-2-[(4-oxo-3,4-dihydroquinazolin-2-yl)sulfanyl]acetamide]
phosphorylation of PKA substrates [1]: increased the levels of phosphorylation

COc1ccc(NC(=O)CSc2nc3ccccc3c(=O)[nH]2)c(OC)c1 [Z160]
pronase susceptibility of AKAP13 (AKAP13): altered pronase susceptibility; also recorded: change of AKAP13 conformation | effect on isoproterenol-induced reduction in reserve capacity (NRVM): prevented the ISO-induced reduction in reserve capacity | phosphorylation of PKA substrates [1]: increased the levels of phosphorylation | heat stability of p38 MAPK (p38 MAPK): did not influence the heat stability
